Measured values taken from patent US20160074373A1, “METHODS AND COMPOSITIONS FOR INHIBITING HUMAN COPPER TRAFFICKING PROTEINS ATOX1 AND CCS” (SHANGHAI INSTITUTE OF MATERIA MEDICA, CHINESE ACADEMY OF …, priority 2013, published 2016).
Values joined by “and” are separate entries in the source; they are usually repeats but may differ in a detail not shown here. Equal entries are not always repeated.

Key:
[1] = test system: Atox1-WD4 interaction (eCALWY3 probe); assay: eCALWY3 FRET assay of Atox1-WD4 interaction; type: biochemical, human; settings: for Fluorescence Intensity Ratio (Citrine/Cerulean): 100 μM compound added; for Recover %: 100 μM compound, recovery of FRET ratio towards eCALWY3 only
Method: FRET for the eCALWY3 was performed in 150 mM HEPES, 100 mM NaCl, 1 mM DTT and 10% glycerol (pH 7.1). Zn^2+ titration was done by mixing 0.9 mM of Zn^2+ from a slightly acidic stock solution of ZnCl2 with buffering systems consisting of 1 mM DHPTA. The effects of varying concentrations of the small molecules were evaluated. Fluorescence spectra and emission anisotropy were recorded on a Varian Cary Eclipse spectrometer.

[2] = test system: human PIG1 cell and human dermal fibroblast cell; settings: for viability of normal cells: 72 hours, highest concentration tested 10 μM
[3] = test system: Lung cancer H1299 cell, Head and neck cancer 212LN cell, Breast cancer MB231 cell; assay: Cancer cell viability / proliferation; settings: for cell death in cancer cells: H1299, 212LN, MB231, increasing doses
human CCS (hCCS) = target: T1, human CCS (hCCS) (Homo sapiens, UniProt O14618); assay: Intrinsic fluorescence Kd measurement; type: binding; settings: intrinsic tryptophan fluorescence
T1 construct: 6-His (cleaved yes); made in house; host or cells: E. coli BL21 (pET28a)
T1 sequence (O14618 1-274): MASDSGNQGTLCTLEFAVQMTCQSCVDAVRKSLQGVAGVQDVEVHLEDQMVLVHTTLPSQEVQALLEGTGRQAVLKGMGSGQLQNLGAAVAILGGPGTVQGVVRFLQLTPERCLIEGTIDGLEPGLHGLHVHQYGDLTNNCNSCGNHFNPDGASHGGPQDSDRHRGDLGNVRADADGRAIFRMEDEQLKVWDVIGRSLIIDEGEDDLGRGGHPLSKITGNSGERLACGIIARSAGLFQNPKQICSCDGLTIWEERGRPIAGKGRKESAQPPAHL
Method: Based on this similarity, the intrinsic fluorescence of tyrosine for Atox1 and WD4 and tryptophan for hCCS upon addition of small molecules was monitored.
The binding assay was performed in an […]. […] The Atox, WD4 domain and hCCS (1 μM) were performed in 50 mM HEPES, 200 mM NaCl, 1 mM DTT (pH 7.1). […] Following this fluorescence results, the Kds of the small molecules was calculated.

[4] = Method: An in vivo small molecule treatment experiment was performed to further test the efficacy of these compounds.
H1299 cells [5] = assay: 14C-lipid synthesis from 14C-glucose; type: cell-based
[6] = test system: AMPK phosphorylation and ACC1 phosphorylation; assay: Western blot of AMPK and ACC1 phosphorylation; type: cell-based; settings: for rescue of AMPK and ACC1 phosphorylation increased by compound 50: co-treatment with compound 50
H1299 cells [7] = assay: ROS production (DCFH-DA); type: cell-based
Method: (§1) Cells were treated with DMSO and DC_AC50 for 12 h and ROS generation was detected with DCFH-DA. Cells were incubated with 10 μM of DCFH-DA for 30 min at 37° C., washed twice with PBS, and immediately analyzed by a FACScan flow cytometer. The antioxidant NAC was treated with 3 mM concentration.

K562 cells [8] = assay: ROS production (DCFH-DA); type: cell-based
Method: as §1

H1299 cancer cells [9] = assay: 8-OHdG levels by triple quadrupole mass spectrometry; type: cell-based
Text: FIG. 20A illustrates 8-OHdG levels in H1299 cancer cells determined by triple quadrupole mass spectrometry analysis. […] .

K562 cancer cells [10] = assay: as above; type: cell-based
Text: FIG. 20B illustrates 8-OHdG levels in K562 cancer cells determined by triple quadrupole mass spectrometry analysis. […] .

K562 cells [11] = assay: K562 xenograft; settings: 100 mg/kg/day i.p. for 21 days vs vehicle control
H1299 cells [12] = assay: H1299 xenograft; settings: 100 mg/kg/day i.p. for 21 days vs vehicle control
H1299 cells [13] = assay: Lactate production
[14] = test system: SOD activity in H1299 cells; assay: SOD activity assay; settings: 48 h treatment
[15] = test system: SOD activity in K562 cells; assay: SOD activity assay; settings: 48 h treatment
H1299 cells [16] = assay: Oxygen consumption rate; settings: in the presence or absence of oligomycin
H1299 cancer cells [17] = assay: Cell cycle arrest assay
K562 cancer cells [18] = assay: Cell cycle arrest assay
H1299 cells [19] = assay: Glucose utilization assay
H1299 cells [20] = assay: Intracellular ATP measurement
K562 cells [21] = assay: Intracellular ATP measurement
H1299 cells [22] = assay: Apoptosis and caspase-3 activity
H1299 cells [23] = assay: 14C-RNA synthesis from 14C-glucose
[24] = test system: cytochrome c oxidase (CCO) in H1299 cells; assay: Cytochrome c oxidase activity assay; settings: compared to the control
[25] = test system: cytochrome c oxidase (CCO) in K562 cells; assay: Cytochrome c oxidase activity assay; settings: compared to the control
SOD1 and SOD2 = assay: Western blot of SOD1 and SOD2 levels; settings: H1299 and K562 cells
HeLa cells = assay: Live cell copper(I) probe imaging of copper uptake; settings: 50 μM, added 10 min after CuSO4 (150 μM)
cell proliferation = assay: Rescue of cell proliferation inhibition induced by compound 50; type: cell-based; settings: co-treatment with compound 50
tumor growth = settings: TM-induced copper deficiency; cited from earlier work

In the case of CCN1CCc2nc3sc(C(=O)Nc4ccccc4OC(F)(F)F)c(N)c3cc2C1 [Compound 2, 3-amino-6-ethyl-N-(2-(trifluoromethoxy)phenyl)-5,6,7,8-tetrahydro-thieno[2,3-b][1,6]naphthyridine-2-carboxamide], the “Fluorescence Intensity Ratio (Citrine/Cerulean)” value [1] is reported as “eCALWY3 only: 3.54 100 μM compound added: 3.05”, the Recover % [1] is reported as 86% and the “viability of normal cells” value [2] is reported as “not harmful”. The “cell death in cancer cells” value [3] was “induce cell death”.

In the case of Nc1c(C(=O)NCC(c2ccccc2)c2ccccc2)sc2nc(-c3ccncc3)cc(C(F)(F)F)c12 [Compound 30], the “Fluorescence Intensity Ratio (Citrine/Cerulean)” value [1] is reported as “eCALWY3 only: 2.27 100 μM compound added: 1.53”, the Recover % [1] is reported as 67% and the “viability of normal cells” value [2] is reported as “not harmful”. For the same compound, the “cell death in cancer cells” value [3] was “induce cell death”.

For COc1cccc(-c2ccc3c(N)c(C(=O)Nc4cc(OC)ccc4Cl)sc3n2)c1 [Compound 49, 3-amino-N-(2-chloro-5-methoxyphenyl)-6-(3-methoxyphenyl)thieno[2,3-b]pyridine-2-carboxamide], the “Fluorescence Intensity Ratio (Citrine/Cerulean)” value [1] was “eCALWY3 only: 2.24 100 μM compound added: 1.89”, the Recover % [1] was 84% and the “viability of normal cells” value [2] was “not harmful”. The “cell death in cancer cells” value [3] was “induce cell death”.

For Nc1c(C(=O)Nc2c(F)cc(F)cc2Br)sc2nc3c(cc12)CCC3 [Compound 50, 3-amino-N-(2-bromo-4,6-difluorophenyl)-6,7-dihydro-5H-cyclopenta[b]thieno[3,2-e]pyridine-2-carboxamide], the Kd (human CCS (hCCS)) was 8 µM and ~8.1 µM, the GRAN ([4]; mouse, in vivo, 100 mg/kg/day) was 1.58 ± 1.4 ×10^3/μL and the HCT ([4]; mouse, in vivo, 100 mg/kg/day) was 30.85 ± 4.879%. The HGB ([4]; mouse, in vivo, 100 mg/kg/day) was 7.45 ± 1.768 g/dL, the LYM ([4]; mouse, in vivo, 100 mg/kg/day) was 4.74 ± 1.556 ×10^3/μL and the MCH ([4]; mouse, in vivo, 100 mg/kg/day) was 13.6 ± 1.273 pg. For the same compound, the MCHC ([4]; mouse, in vivo, 100 mg/kg/day) was 24 ± 1.98 g/dL, the MCV ([4]; mouse, in vivo, 100 mg/kg/day) was 56.75 ± 0.919 fL and the MONO ([4]; mouse, in vivo, 100 mg/kg/day) was 0.44 ± 0.17 ×10^3/μL. For the same compound, the PLT ([4]; mouse, in vivo, 100 mg/kg/day) was 742 ± 684.5 ×10^3/μL, the RBC ([4]; mouse, in vivo, 100 mg/kg/day) was 5.43 ± 0.778 ×10^6/μL and the RDWa ([4]; mouse, in vivo, 100 mg/kg/day) was 21.5 ± 4.667%. For the same compound, the WBC ([4]; mouse, in vivo, 100 mg/kg/day) was 6.89 ± 3.125 ×10^3/μL, the MPV ([4]; nude mice, 100 mg/kg/day, mean) was 6.35 ± 0.495 fL and the well-tolerated dose ([4]; nude, mouse, in vivo, ip, 4 weeks) was 100 mg/kg/day. For the same compound, the lipid synthesis (H1299 cells [5]) was “significant decreases”, the ACC1 phosphorylation ([6]; H1299 and K562 cells) was “increased” and the AMPK phosphorylation ([6]; H1299 and K562 cells) was “increased”. The “cellular ROS level” value (H1299 cells [7]; 10 μM) was “increased cellular ROS level”, the “cellular ROS level” value (K562 cells [8]; 10 μM) was “increased cellular ROS level” and the 8-OHdG levels (H1299 cancer cells [9]) was “increased”. The 8-OHdG levels (K562 cancer cells [10]) was “increased”, the “effect on noncancerous cell lines” value [2] was “minimum effects” and the “viability of normal cells” value [2] was “not harmful”. The “tumor growth and size” value (K562 cells [11]) was “significantly decreased tumor growth and size”, the “tumor growth and size” value (H1299 cells [12]) was “significantly decreased tumor growth and size” and the “cellular level of lactate” value (H1299 cells [13]) was “no noticeable changes”. For the same compound, the SOD activity [14] was “noticeably decreased”, the SOD activity [15] was “noticeably decreased” and the oxygen consumption rate (H1299 cells [16]) was “significantly decreased”. The cell cycle (H1299 cancer cells [17]) was “G2/M phase cell cycle arrest”, the cell cycle (K562 cancer cells [18]) was “G2/M phase cell cycle arrest” and the glucose uptake (H1299 cells [19]) was “no noticeable changes”. For the same compound, the “cellular ATP levels” value (H1299 cells [20]) was “significantly reduced”, the “cellular ATP levels” value (K562 cells [21]) was “significantly reduced” and the apoptosis (H1299 cells [22]) was “didn't noticeably induce apoptosis”. For the same compound, the caspase-3 activity (H1299 cells [22]) was “does not noticeably affect”, the “glucose-dependent RNA synthesis” value (H1299 cells [23]) was “no noticeable changes” and the CCO activity [24] was “significantly lowered”. The CCO activity [25] was “significantly lowered”, the SOD2 expression level (SOD1 and SOD2) was “Reduced expression” and the “cell death in cancer cells” value [3] was “induce cell death”. The cancer cell proliferation ([3]; dose-dependent) was “high efficiency in inhibiting cancer cell proliferation” and the copper uptake (HeLa cells) was “reduced copper uptake”.

With COc1ccc2cc3c(N)c(C(=O)Nc4ccc(C(C)=O)cc4)sc3nc2c1 [Compound 61, N-(4-acetylphenyl)-3-amino-7-methoxythieno[2,3-b]quinoline-2-carboxamide] the “Fluorescence Intensity Ratio (Citrine/Cerulean)” value [1] was “eCALWY3 only: 3.68 100 μM compound added: 2.72”, the Recover % [1] was 74% and the “viability of normal cells” value [2] was “not harmful”. For the same compound, the “cell death in cancer cells” value [3] was “induce cell death”.

With Cc1cc(NC(=O)c2sc3nc(-c4ccccc4)cc(C(F)(F)F)c3c2N)no1 [Compound 71, 3-amino-N-(5-methylisoxazol-3-yl)-6-phenyl-4-(trifluoromethyl)thieno[2,3-b]pyridine-2-carboxamide] the “Fluorescence Intensity Ratio (Citrine/Cerulean)” value [1] was “eCALWY3 only: 2.25 100 μM compound added: 1.86”, the Recover % [1] was 83% and the “viability of normal cells” value [2] was “toxic to normal cells”.

With CC(=O)N[C@@H](CS)C(=O)O [NAC, N-acetyl-L-cysteine, reference compound] the “rescue of AMPK and ACC1 phosphorylation increased by compound 50” value [6] was “could not be rescued”, the “rescue of cellular ROS levels increased by compound 50” value (H1299 cells [7]; co-treatment with compound 50) was “almost completely rescued” and the “rescue of cellular ROS levels increased by compound 50” value (K562 cells [8]; co-treatment with compound 50) was “almost completely rescued”. For the same compound, the “rescue of 8-OHdG levels increased by compound 50” value (H1299 cancer cells [9]; NAC 3 mM) was “rescued”, the “rescue of 8-OHdG levels increased by compound 50” value (K562 cancer cells [10]; NAC 3 mM) was “rescued” and the “rescue of cell proliferation inhibited by compound 50” value (cell proliferation) was “partially rescued”.

In the case of [SH-].[SH-].[S]=[Mo]=[S] [TM, tetrathiomolybdate], the tumor growth (tumor growth) is listed as “significantly inhibited tumor growth”.

For c1cc(-c2cnn3cc(-c4ccc(OCCN5CCCCC5)cc4)cnc23)ccn1 [compound C, reference compound], the “rescue of lipid synthesis decreased by compound 50” value (H1299 cells [5]; co-treatment with compound 50) was “recovered lipid synthesis”, the “rescue of AMPK and ACC1 phosphorylation increased by compound 50” value [6] was “almost completely reversed” and the “rescue of cell proliferation inhibited by compound 50” value (cell proliferation) was “partially rescued”.
